The NIST ThermoML archive (doi:10.1021/acs.jced.7b00107)
± gives the expanded uncertainty stated by the source.

Assay: molar heat capacity at constant pressure
Conditions: 101.33 kPa, Crystal 1

Cl.NC12CC3CC(CC(C3)C1)C2 [1-aminoadamantane hydrochloride]
molar heat capacity at constant pressure [J/K/mol]
Conditions	Small (less than 1 g) adiabatic calorimetry	Small sample (50 mg) DSC
196.3 K	140.9 ± 0.8	–
197.31 K	141.5 ± 0.8	–
197.81 K	141.9 ± 0.8	–
199.31 K	142.8 ± 0.8	–
199.33 K	142.9 ± 0.8	–
200 K	143.3 ± 0.8	–
200.81 K	143.9 ± 0.8	–
201.34 K	144.3 ± 0.8	–
202.3 K	144.9 ± 0.8	–
203.36 K	145.7 ± 0.8	–
203.8 K	146.1 ± 0.8	–
205.3 K	147 ± 0.8	–
205.38 K	147.1 ± 0.8	–
206.8 K	148 ± 0.8	–
207.4 K	148.4 ± 0.8	–
208.29 K	149 ± 0.8	–
209.42 K	149.8 ± 0.8	–
209.79 K	150 ± 0.8	–
210 K	150.2 ± 0.8	–
211.28 K	151 ± 0.8	–
211.44 K	151.2 ± 0.8	–
212.77 K	152.1 ± 0.8	–
213.46 K	152.6 ± 0.8	–
214.26 K	153.1 ± 0.8	–
215.49 K	154.1 ± 0.8	–
215.75 K	154.2 ± 0.8	–
217.23 K	155.3 ± 0.9	–
217.51 K	155.5 ± 0.9	–
218.71 K	156.2 ± 0.9	–
219.54 K	156.9 ± 0.9	–
220 K	157.3 ± 0.8	–
220.19 K	157.2 ± 0.9	–
221.56 K	158.4 ± 0.9	–
221.67 K	158.4 ± 0.9	–
223.43 K	159.7 ± 0.9	–
223.59 K	159.8 ± 0.9	–
225.29 K	161.1 ± 0.9	–
225.62 K	161.3 ± 0.9	–
227.06 K	162.3 ± 0.9	–
227.64 K	162.8 ± 0.9	–
228.83 K	163.7 ± 0.9	–
229.67 K	164.3 ± 0.9	–
230 K	164.5 ± 0.9	–
230.6 K	165.1 ± 0.9	–
231.7 K	165.8 ± 0.9	–
232.37 K	166.3 ± 0.9	–
233.72 K	167.3 ± 0.9	–
234.13 K	167.6 ± 0.9	–
235.75 K	169 ± 0.9	–
235.89 K	168.9 ± 0.9	–
237.64 K	170.4 ± 0.9	–
237.78 K	170.3 ± 0.9	–
239.4 K	171.9 ± 0.9	–
239.81 K	172.1 ± 0.9	–
240 K	171.8 ± 0.9	–
241.15 K	173.6 ± 0.9	–
241.84 K	174.1 ± 0.9	–
242.89 K	174.2 ± 0.9	–
243.87 K	174.6 ± 0.9	–
244.64 K	175.3 ± 0.9	–
245.91 K	176.1 ± 1	–
246.38 K	176.6 ± 1	–
247.94 K	177.7 ± 1	–
248.13 K	177.9 ± 1	–
249.87 K	179.2 ± 1	–
249.97 K	179.2 ± 1	–
250 K	179.3 ± 1	–
251.6 K	180.5 ± 1	–
252 K	180.7 ± 1	–
253.34 K	181.7 ± 1	–
254.03 K	182.2 ± 1	–
255.07 K	183.1 ± 1	–
256.06 K	183.7 ± 1	–
256.8 K	184.4 ± 1	–
258.09 K	185.3 ± 1	–
258.52 K	185.6 ± 1	–
260 K	186.8 ± 1	–
260.12 K	186.8 ± 1	–
260.24 K	186.9 ± 1	–
262.15 K	188.4 ± 1	–
264.19 K	189.9 ± 1	–
266.22 K	191.4 ± 1	–
268.25 K	193.1 ± 1	–
270 K	194.3 ± 1.1	–
270.28 K	194.5 ± 1	–
272.31 K	196.1 ± 1.1	–
274.35 K	197.7 ± 1.1	–
276.38 K	199.3 ± 1.1	–
278.41 K	200.9 ± 1.1	–
280 K	202.1 ± 1.1	–
280.44 K	202.5 ± 1.1	–
282.47 K	204 ± 1.1	–
284.51 K	205.6 ± 1.1	–
286.53 K	207.1 ± 1.1	–
288.56 K	208.7 ± 1.1	–
290 K	209.9 ± 1.1	–
290.6 K	210.3 ± 1.1	–
292.63 K	211.9 ± 1.1	–
294.66 K	213.5 ± 1.1	–
296.69 K	215 ± 1.1	–
298.15 K	216.2 ± 1.2	–
298.72 K	216.6 ± 1.2	–
300 K	217.6 ± 1.2	–
300.75 K	218.1 ± 1.2	–
302.78 K	219.8 ± 1.2	–
304.81 K	221.3 ± 1.2	–
306.84 K	222.9 ± 1.2	–
308.88 K	224.5 ± 1.2	–
310 K	225.3 ± 1.2	222.6 ± 9.4
310.91 K	226 ± 1.2	–
311.7 K	–	223.7 ± 9.5
312.94 K	227.6 ± 1.2	–
313.3 K	–	224.7 ± 9.5
314.98 K	229.1 ± 1.2	–
315 K	–	226.1 ± 9.6
316.6 K	–	227.2 ± 9.6
317.01 K	230.8 ± 1.2	–
318.2 K	–	228.5 ± 9.7
319.04 K	232.3 ± 1.2	–
319.9 K	–	229.5 ± 9.7
320 K	233 ± 1.2	–
321.08 K	233.9 ± 1.2	–
321.5 K	–	230.9 ± 9.8
323.1 K	–	231.9 ± 9.8
323.11 K	235.4 ± 1.2	–
324.8 K	–	233.5 ± 9.9
325.15 K	237 ± 1.2	–
326.4 K	–	234.8 ± 10
327.19 K	238.6 ± 1.3	–
328 K	–	236 ± 10
329.23 K	240.1 ± 1.3	–
329.6 K	–	237.3 ± 10
330 K	240.7 ± 1.3	–
331.2 K	–	238.4 ± 10
331.26 K	241.7 ± 1.3	–
332.8 K	–	239.6 ± 10
333.3 K	243.3 ± 1.3	–
334.4 K	–	241.2 ± 10
335.34 K	244.9 ± 1.3	–
336 K	–	242.3 ± 10
337.38 K	246.5 ± 1.3	–
337.6 K	–	243.3 ± 10
339.3 K	–	244.7 ± 10
339.42 K	248.1 ± 1.3	–
340 K	248.6 ± 1.3	–
340.9 K	–	246.2 ± 10
341.46 K	249.6 ± 1.3	–
342.5 K	–	247.4 ± 10
343.5 K	251.3 ± 1.3	–
344.1 K	–	248.6 ± 11
345.54 K	252.9 ± 1.3	–
345.7 K	–	249.8 ± 11
347.2 K	–	251.1 ± 11
347.58 K	254.6 ± 1.3	–
348.8 K	–	252.4 ± 11
349.62 K	256.2 ± 1.3	–
350 K	256.5 ± 1.3	–
350.4 K	–	253.7 ± 11
351.66 K	257.8 ± 1.4	–
352 K	–	254.9 ± 11
353.6 K	–	256.1 ± 11
353.7 K	259.4 ± 1.4	–
355.2 K	–	257.6 ± 11
355.74 K	261.1 ± 1.4	–
356.8 K	–	259 ± 11
357.78 K	262.8 ± 1.4	–
358.4 K	–	260.3 ± 11
359.82 K	264.4 ± 1.4	–
360 K	264.5 ± 1.4	261.8 ± 11
361.6 K	–	263.1 ± 11
361.86 K	266 ± 1.4	–
363.2 K	–	264.7 ± 11
363.9 K	267.5 ± 1.4	–
364.8 K	–	265.8 ± 11
365.94 K	269.3 ± 1.4	–
366.3 K	–	267.1 ± 11
367.9 K	–	268.2 ± 11
367.98 K	270.9 ± 1.4	–
369.5 K	–	269.4 ± 11
370 K	272.5 ± 1.4	–
371.1 K	–	270.6 ± 12
372.7 K	–	271.9 ± 12
374.3 K	–	273.2 ± 12
375.9 K	–	274.4 ± 12
377.4 K	–	275.5 ± 12
379 K	–	276.5 ± 12
380 K	–	280 ± 12
380.6 K	–	277.8 ± 12
382.2 K	–	279 ± 12
383.8 K	–	280.3 ± 12
385.4 K	–	281.2 ± 12
386.9 K	–	282.7 ± 12
388.5 K	–	284.1 ± 12
390 K	–	288 ± 13
390.1 K	–	285 ± 12
391.7 K	–	286.5 ± 12
393.3 K	–	287.4 ± 12
394.9 K	–	288.7 ± 12
396.4 K	–	289.9 ± 12
398 K	–	291.3 ± 12
399.6 K	–	292.6 ± 12
400 K	–	296 ± 13
401.2 K	–	293.6 ± 12
402.8 K	–	294.7 ± 12
404.4 K	–	296.2 ± 13
405.9 K	–	297.3 ± 13
407.5 K	–	298.6 ± 13
409.1 K	–	299.8 ± 13
410 K	–	304 ± 13
410.7 K	–	301 ± 13
412.3 K	–	302.3 ± 13
413.8 K	–	303.9 ± 13
415.4 K	–	305.3 ± 13
417 K	–	306.5 ± 13
418.6 K	–	307.7 ± 13
420 K	–	312 ± 13
420.2 K	–	308.7 ± 13
421.7 K	–	309.9 ± 13
423.3 K	–	311.5 ± 13
424.9 K	–	312.6 ± 13
426.5 K	–	313.6 ± 13
428.1 K	–	314.7 ± 13
429.7 K	–	315.8 ± 13
430 K	–	319 ± 14
431.2 K	–	317 ± 14
432.8 K	–	318.4 ± 14
434.4 K	–	319.9 ± 14
436 K	–	321 ± 14
437.6 K	–	322.3 ± 14
439.1 K	–	323.5 ± 14
440 K	–	327 ± 14
440.7 K	–	324.8 ± 14
442.3 K	–	326 ± 14
443.9 K	–	326.9 ± 14
445.5 K	–	328 ± 14
447 K	–	329.5 ± 14
448.6 K	–	330.4 ± 14
450 K	–	334 ± 14
450.2 K	–	331.6 ± 14
451.8 K	–	332.9 ± 14
453.4 K	–	334.4 ± 14
454.9 K	–	335.7 ± 14
456.5 K	–	336.7 ± 14
458.1 K	–	337.3 ± 14
459.7 K	–	338.7 ± 14
460 K	–	342 ± 15
461.3 K	–	339.3 ± 14
462.8 K	–	340.6 ± 14
464.4 K	–	341.7 ± 14
466 K	–	343 ± 15
467.6 K	–	344.1 ± 15
469.2 K	–	345 ± 15
470 K	–	349 ± 15
470.7 K	–	346.4 ± 15
